Assay results from patent publication US20100120063A1, “GPCR Arrestin Assays” (DISCOVERX CORPORATION, priority 2008, published 2010).

Key:
Type in all cases: cell-based
OPRM1-PK = target: T1, OPRM1-PK (Homo sapiens, UniProt P35372); assay: Arrestin-EA EFC agonist assay, U2OS cells expressing OPRM1-PK only
T1 construct: PK (beta-galactosidase ED); expressed in transfected cells; host or cells: U2OS
Protocol: (§2) For all assays, 10,000 cells per well were seeded in 20 μL media and incubated overnight in 1% Fetal Bovine Serum and appropriate basal media (F-12 or DMEM). For agonist assays, 5 μL compound was added to cells and incubated at Room Temp. […] Arrestin-EA complex formation with the GPCR was detected with 50% (v/v) of PathHunter Detection Reagent (Dx 93-0001, PathHunter reagents are available from DiscoveRx, Corp., Fremont, Calif.) (Lysis buffer active ingredient 2% CHAPS, Emerald II and Galacton star are from Applied Biosystems.) Data was read on Packard Victor 2 or PerkinElmer ViewLux readers and analyzed using GraphPad Prism 4.

OPRD1-PK and OPRM1 = target: T2, OPRD1-PK and OPRM1 (Homo sapiens, UniProt P35372); assay: Transactivation assay, CHO cells co-expressing OPRD1-PK and OPRM1 (FIG. 12C)
T2 construct: expressed in transfected cells; host or cells: CHO
T2 sequence (P35372 whole entry, species assumed): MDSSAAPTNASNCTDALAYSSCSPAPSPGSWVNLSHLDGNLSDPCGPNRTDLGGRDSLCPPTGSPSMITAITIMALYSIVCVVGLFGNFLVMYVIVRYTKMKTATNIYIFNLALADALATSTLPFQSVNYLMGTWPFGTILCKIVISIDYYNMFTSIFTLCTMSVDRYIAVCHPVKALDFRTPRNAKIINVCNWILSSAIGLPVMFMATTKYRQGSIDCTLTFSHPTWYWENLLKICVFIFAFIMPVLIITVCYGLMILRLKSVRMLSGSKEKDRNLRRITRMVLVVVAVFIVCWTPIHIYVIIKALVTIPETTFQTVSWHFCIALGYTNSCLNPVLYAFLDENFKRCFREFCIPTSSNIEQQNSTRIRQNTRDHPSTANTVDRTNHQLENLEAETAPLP
Protocol: as §2

OPRD1-PK = target: T3, OPRD1-PK (Homo sapiens, UniProt P41143); assay: Arrestin-EA EFC agonist assay, CHO cells expressing OPRD1-PK (FIG. 12A)
T3 construct: cloning junction ISFEL + gly-ser linker […]; PK1 (mutated ED, H to R); expressed in transfected cells; host or cells: CHO
Protocol: as §2

CCKAR-PK [1] = target: T4, CCKAR-PK (Homo sapiens, UniProt P32238); assay: Calcium concentration in HEK cell line expressing CCKAR-PK and arrestin-EA (FIG. 10A, 10C)
T4 construct: PK (beta-galactosidase ED); expressed in transfected cells; host or cells: HEK
T4 sequence (P32238 1-428): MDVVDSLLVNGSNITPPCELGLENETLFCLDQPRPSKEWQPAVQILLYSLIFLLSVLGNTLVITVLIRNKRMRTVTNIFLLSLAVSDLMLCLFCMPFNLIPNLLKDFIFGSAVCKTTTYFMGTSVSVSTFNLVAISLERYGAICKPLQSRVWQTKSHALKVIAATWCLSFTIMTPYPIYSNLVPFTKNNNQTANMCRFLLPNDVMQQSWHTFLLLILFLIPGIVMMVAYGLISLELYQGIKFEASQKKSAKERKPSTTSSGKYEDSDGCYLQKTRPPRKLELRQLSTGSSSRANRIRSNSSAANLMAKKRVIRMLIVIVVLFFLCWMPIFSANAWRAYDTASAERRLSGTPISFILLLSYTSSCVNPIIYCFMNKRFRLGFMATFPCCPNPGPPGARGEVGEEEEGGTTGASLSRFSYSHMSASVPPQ

CCKAR-PK [2] = target: T4, CCKAR-PK; assay: Arrestin-EA binding to CCKAR-PK in HEK cell line (FIG. 10B, 10D)
Protocol: (§3) For all assays, 10,000 cells per well were seeded in 20 μL media and incubated overnight in 1% Fetal Bovine Serum and appropriate basal media (F-12 or DMEM). For agonist assays, 5 μL compound was added to cells and incubated at Room Temp. For antagonist assays, 5 μL 5× compound was added to cells and incubated at 37° C./5% CO2 for 10 minutes, after which 5 μL 6× agonist was added and incubated for 60 minutes at 37° C. Arrestin-EA complex formation with the GPCR was detected with 50% (v/v) of PathHunter Detection Reagent (Dx 93-0001, PathHunter reagents are available from DiscoveRx, Corp., Fremont, Calif.) (Lysis buffer active ingredient 2% CHAPS, Emerald II and Galacton star are from Applied Biosystems.) Data was read on Packard Victor 2 or PerkinElmer ViewLux readers and analyzed using GraphPad Prism 4.

CHRM2 [3] = target: T5, CHRM2 (Homo sapiens, UniProt P08172); assay: Arrestin-EA / GPCR-PK EFC screening assay, CHO Arrestin + CHRM2-PK2 (wild-type ED)
T5 construct: gly-ser flexible linker […]; expressed in transfected cells; host or cells: CHO
T5 sequence (P08172 1-466): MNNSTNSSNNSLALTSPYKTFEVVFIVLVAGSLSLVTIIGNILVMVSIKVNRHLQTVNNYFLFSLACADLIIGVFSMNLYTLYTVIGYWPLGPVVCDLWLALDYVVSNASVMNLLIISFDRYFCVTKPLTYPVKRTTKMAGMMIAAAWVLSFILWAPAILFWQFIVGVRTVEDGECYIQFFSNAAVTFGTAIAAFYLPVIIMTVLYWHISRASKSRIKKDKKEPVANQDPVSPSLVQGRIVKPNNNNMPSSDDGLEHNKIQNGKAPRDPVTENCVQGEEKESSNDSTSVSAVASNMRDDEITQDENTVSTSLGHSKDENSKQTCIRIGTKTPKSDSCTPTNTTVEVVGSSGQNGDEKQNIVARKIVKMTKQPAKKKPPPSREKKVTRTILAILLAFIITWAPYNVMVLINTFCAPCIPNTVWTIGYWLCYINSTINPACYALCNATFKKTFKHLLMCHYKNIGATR
Protocol: (§1) To perform the screening assay, 20 μl of cells in complete media or serum-free media (OPTI-MEM® Invitrogen Cat. #31985-070) were plated at 5, 10 and 15×10^3 cells per well in a white 384 well microplate and incubated at 37° C. overnight. Cells are allowed to adhere and grown overnight. Cells may be screened for their response in serum free or complete medium. Serial dilutions are then performed in serum-free medium or buffer for a volume of 25 μl. Depending on the candidate compound, the dilution may occur in the presence of 0.1% BSA or ≦1% final concentration of an organic solvent, e.g., DMSO and methanol. 5 μl of each candidate compound is added per well. The assay mixture is then incubated for 90 min at 37° C. 12.5 μl of the detection reagent is then added. The detection reagent is prepared by combining 1 part Galacton Star Substrate® with 5 parts Emerald II® Solution and 19 parts Path-Hunter Cell Assay Buffer (lysis buffer). The assay mixture is then incubated for 1 h at room temperature. Chemiluminescence is then read at 1.0 sec/well on PMT based instrument or 5-20 sec on an imager.

CHRM2 [4] = target: T5, CHRM2; assay: Arrestin-EA / GPCR-PK β-galactosidase EFC screening assay, CHRM2 fused to mutated ED (PK1)
Protocol: as §1

OPRM1-PK and CCR5 = target: T6, OPRM1-PK and CCR5 (Homo sapiens, UniProt P51681); assay: Transactivation assay, U2OS cells co-expressing OPRM1-PK and CCR5 (FIG. 13B); conditions: CCR5 coexpressed with OPRM1-PK; FIG. 13 graph B
T6 construct: expressed in transfected cells; host or cells: U2OS
T6 sequence (P51681 whole entry, species assumed): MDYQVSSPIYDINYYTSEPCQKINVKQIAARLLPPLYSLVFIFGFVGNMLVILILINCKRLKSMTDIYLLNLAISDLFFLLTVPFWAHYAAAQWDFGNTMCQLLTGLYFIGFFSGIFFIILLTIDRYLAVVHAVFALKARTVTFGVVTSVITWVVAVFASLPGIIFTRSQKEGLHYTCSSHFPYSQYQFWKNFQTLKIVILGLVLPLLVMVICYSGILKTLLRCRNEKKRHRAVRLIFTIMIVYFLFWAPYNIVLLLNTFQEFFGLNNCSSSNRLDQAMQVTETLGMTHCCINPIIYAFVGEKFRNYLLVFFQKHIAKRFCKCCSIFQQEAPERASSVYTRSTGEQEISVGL
Protocol: as §3

OPRM1-PK and CCR2 = target: T7, OPRM1-PK and CCR2 (Homo sapiens, UniProt P41597); assay: Transactivation assay, U2OS cells co-expressing OPRM1-PK and CCR2 (FIG. 13A); conditions: CCR2 coexpressed with OPRM1-PK; FIG. 13 graph A
T7 construct: expressed in transfected cells; host or cells: U2OS
T7 sequence (P41597 whole entry, species assumed): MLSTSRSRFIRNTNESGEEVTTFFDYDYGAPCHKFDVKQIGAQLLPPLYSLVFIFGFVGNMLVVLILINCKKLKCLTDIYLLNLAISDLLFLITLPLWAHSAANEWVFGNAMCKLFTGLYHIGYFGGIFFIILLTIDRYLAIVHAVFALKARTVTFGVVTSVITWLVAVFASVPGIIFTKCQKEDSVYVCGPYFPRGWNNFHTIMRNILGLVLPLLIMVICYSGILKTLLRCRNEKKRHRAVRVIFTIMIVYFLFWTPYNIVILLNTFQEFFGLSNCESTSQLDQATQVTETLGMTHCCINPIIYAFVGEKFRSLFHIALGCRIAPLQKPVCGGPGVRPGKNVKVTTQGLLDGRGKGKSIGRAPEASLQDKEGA
Protocol: as §2

[5] = curve fit, signal, U2OS OPRM1-PK only
[6] = curve fit, chemiluminescence signal, FIG. 4

T1 sequence (P35372 whole entry): as the sequence (P35372 whole entry, species assumed) above

CC(C)C[C@@H](NC(=O)[C@H](Cc1ccccc1)NC(=O)CNC(=O)[C@@H](C)NC(=O)[C@@H](N)Cc1ccc(O)cc1)C(=O)O [DADLE] was tested, and the HILLSLOPE (OPRM1-PK; U2OS OPRM1-PK only) was 1.483, the BOTTOM (OPRM1-PK; [5]) was 625.6 and the TOP (OPRM1-PK; [5]) was 17070. For the same molecule, the “S:B” value (OPRM1-PK; signal to background, U2OS OPRM1-PK only) was “[S:B = 32.7]”.
For C[C@@H](NC(=O)[C@@H](N)Cc1ccc(O)cc1)C(=O)NCC(=O)N(C)[C@@H](Cc1ccccc1)C(=O)NCCO [DAMAGO, [D-Ala2,N-Me-Phe4,Gly5-ol]-enkephalin], the HILLSLOPE (OPRM1-PK; U2OS OPRM1-PK only) was 0.7069, the “arrestin-EA binding response” value (OPRM1-PK; cells expressing only OPRM1-PK) was “presence of response” and the TOP (OPRM1-PK; [5]) was 10875. For the same molecule, the HILLSLOPE (OPRD1-PK and OPRM1; FIG. 12C) was 1.571, the “transactivation response” value (OPRD1-PK and OPRM1; cells expressing OPRD1-PK and OPRM1) was “lack of response” and the BOTTOM (OPRD1-PK and OPRM1; curve fit, signal, FIG. 12C) was 20.31. The TOP (OPRD1-PK and OPRM1; curve fit, signal, FIG. 12C) was 201.4, the “S:B” value (OPRD1-PK and OPRM1; signal to background, FIG. 12C) was “[S:B = 31.9]” and the HILLSLOPE (OPRD1-PK; FIG. 12A) was 1.293. For the same molecule, the “response” value (OPRD1-PK; cells expressing only OPRD1-PK) was “absence of response”, the BOTTOM (OPRD1-PK; curve fit, signal, FIG. 12A) was 519.8 and the TOP (OPRD1-PK; curve fit, signal, FIG. 12A) was 2809.
In the case of C[N+](C)(C)CCOC(N)=O [carbachol], the “effect on calcium concentration” value (CCKAR-PK [1]) is reported as “some effect” and the “effect on the binding of arrestin-EA to CCKAR-PK” value (CCKAR-PK [2]) is reported as “substantially no effect”.
In the case of O=C1CCCN1CC#CCN1CCCC1 [oxotremorine], the EC50 (CHRM2 [3]; FIG. 4) is reported as 6.29 µM, the HILLSLOPE (CHRM2 [3]; FIG. 4) is reported as 1.183 and the “response with PK2” value (CHRM2 [3]; FIG. 4) is reported as “robust response”. The BOTTOM (CHRM2 [3]; [6]) was 335.9, the TOP (CHRM2 [3]; [6]) was 2037 and the “S:B PK2” value (CHRM2 [3]; signal to background ratio, CHRM2 fused to PK2, FIG. 1B) was 6.1. The “response with PK1” value (CHRM2 [4]; CHRM2, FIG. 4) was “no response”, the “fold response with PK1” value (CHRM2 [4]; CHRM2 fused to PK1, FIG. 1A) was 1.4 fold and the “S:B PK1” value (CHRM2 [4]; signal to background ratio, CHRM2 fused to PK1, FIG. 1A) was 1.6.
CCL3: ligand added to CCR5 cells was tested, and the “transactivation response” value (OPRM1-PK and CCR5) was “no response” and the “transactivation response” value (OPRM1-PK and CCR2) was “no response”.
